Consider one molecule from patent publication EP4789666A1, “RNA M6A REGULATOR COMPOSITION, PREPARATION METHOD THEREFOR, AND USE THEREOF” (SHANGHAI MERNA THERAPEUTICS CO. LTD, priority 2023, dated 2025).

Series [1] in a line: Stability test of binary mixtures of the compound of formula (I) and penetration enhancers. The following applies: binary mixture 10:1, 40°C/75%RH. It is filed as physicochemical. On the procedure: Different types of penetration enhancers and the compound of formula (I) were mixed at a weight ratio of 10:1 to carry out a stability test under accelerated conditions of 40°C/75%RH. Table 15: Stability test of binary mixtures of the compound of formula (I) and penetration enhancers

Series [2] has as its system human HaCaT keratinocytes. Put plainly: m6A methylation level of human keratinocytes (EpiQuik m6A RNA methylation quantification kit). Format: cell-based. The following applies: 24 hours, relative to control group 1. On the procedure: HaCaT cells were cultured in DMEM culture medium containing 10% fetal bovine serum, 100 U/mL penicillin, and 100 µg/mL streptomycin. Culture dishes were placed in an incubator containing 5% CO2 for culture at 37°C for 24 hours. An equal volume of DMSO was added in control group 1, 50 nM sorafenib, capecitabine, docetaxel, and osimertinib were respectively added in control groups A, B, C, and D, and 400 nM test compounds or nicotinamide were respectively added in sample groups A1, A2, B1, B2, C1, C2, D1, and D2 after the addition of 50 nM corresponding compounds. The cells were continuously cultured for 24 hours, washed with PBS, and then collected by high-speed centrifugation. Total RNA was extracted using Trizol reagent (Sigma Aldrich), and RNA m6A methylation of a sample was quantitatively detected using an EpiQuik m6A RNA methylation quantification kit. The concentrations of positive control samples for a standard curve were 0.01 ng/µl, 0.02 ng/µl, 0.05 ng/µl, 0.1 ng/µl, 0.2 ng/µl, and 0.5 ng/µl. The absorbance at 450 nm was read using a microplate reader (Tecan GENios). A quantitative calculation formula for m6A is as follows: m6A (ng) = (absorbanceofsamplewell-absorbanceofbackgroundwell)/slope of standard curve [formula] m6A (%) = m6A (ng)/RNA amount of sample (ng)*100%. [formula]
Table 1: Fold change in m6A methylation level relative to control group 1

As for `NC(=O)[C@H]1CCCc2c1[nH]c1ccc(Cl)cc21` [Compound of formula (I), (S)-6-chloro-2,3,4,9-tetrahydro-1H-carbazole-carboxamide], the “stability in diisopropyl oxalate” value in series [1] is on record as “unstable”. Moreover, in series [1], the “stability in propylene carbonate” value is listed as “unstable”. Further, the m6A fold change was found to be 1.1 in series [2] (400 nM after 50 nM capecitabine), 1.0 in series [2] (400 nM after 50 nM docetaxel), 1.2 in series [2] (400 nM after 50 nM osimertinib) and 1.4 in series [2] (400 nM after 50 nM sorafenib).
